The test deals with Erysiphe graminis f. sp. Tritici. The test can be described thus: Erysiphe test (wheat)/curative. Type of test: in vivo, Erysiphe graminis f. sp. Tritici on wheat. To be noted: curative, sprayed 48 hours after inoculation, application rate 50 g/ha of each active compound, evaluation 8 days after inoculation, 0% = control, 100% = no infection. As to the method: The efficacy here is determined in %. 0% denotes an efficacy which corresponds to that of the control, while an efficacy of 100% means that no infection is observed.
To produce a suitable preparation of active compound, 1 part by weight of active compound or active compound combination is mixed with the stated amounts of solvent and emulsifier, and the concentrate is diluted with water to the desired concentration.
To test for curative activity, young plants are dusted with spores of Erysiphe graminis f. sp. Tritici. 48 hours after the inoculation, the plants are sprayed with the preparation of active compound at the stated application rate.
The plants are placed in a greenhouse at a temperature of about 20° C. and a relative atmospheric humidity of about 80% to promote the development of mildew pustules.
Evaluation is carried out 8 days after the inoculation. 0% means an efficacy which corresponds to that of the control, whereas an efficacy of 100% means that no infection is observed.
As to `CC(C)(C)C(O)(CCc1ccc(Cl)cc1)Cn1cncn1` (stereo not drawn) [(III) tebucinazole, tebucinazole], the “Efficacy in % found (activity found)” value is recorded as 22%.
As for `OC(Cc1ccccc1Cl)(Cn1nc[nH]c1=S)C1(Cl)CC1` (stereo not drawn) [(II) prothioconazole, prothioconazole], the “Efficacy in % found (activity found)” value was determined as 0%.
As for `CON=C(C1=NOCCO1)c1ccccc1Oc1ncnc(Oc2ccccc2Cl)c1F` [(I) fluoxastrobin, 3-[1-[2-(4-<2-chlorophenoxy>-5-fluoropyrimid-6-yloxy)phenyl]-1-(methoximino)methyl]-5,6-dihydro-1,4,2-dioxazine], the “Efficacy in % found (activity found)” value is 11%.
